From US10112895B2, “Antivirals against molluscum contagiosum virus” (priority 2014, dated 2018)
Entries after “also recorded” stand apart in the source; their conditions may differ. Like-named read-outs stand apart in the source and are kept apart here.

Key:
[1] = molecular target: mD4-dependent processive DNA synthesis (6His-mD4, vA20 and vE9) (Molluscum contagiosum virus, UniProt Q98260); assay: biochemical; design: species or system molluscum contagiosum virus / vaccinia virus
mD4-VV hybrid virus [2] = assay: microbe, parasite or virus in culture; format: cell-based, vaccinia hybrid virus containing mD4 of MCV; settings: for EC50: Hybrid virus
mD4 [3] = molecular target: T1, mD4 (Molluscum contagiosum virus, UniProt Q98260); assay: Binding to immobilized mD4 by SPR (Surface Plasmon Resonance); settings: steady-state response, 1:1 binding model, 0-250 μM, 1% DMSO; read-out: binding affinity KD to mD4 protein by SPR
T1 sequence (Q98260 1-226): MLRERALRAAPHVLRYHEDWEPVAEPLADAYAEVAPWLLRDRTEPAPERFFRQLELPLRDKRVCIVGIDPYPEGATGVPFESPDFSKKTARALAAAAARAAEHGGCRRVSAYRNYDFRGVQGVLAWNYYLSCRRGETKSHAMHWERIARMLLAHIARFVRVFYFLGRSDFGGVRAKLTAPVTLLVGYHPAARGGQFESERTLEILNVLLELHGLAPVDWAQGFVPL
Description: The binding of compound 2 to mD4 was determined by SPR. mD4 was immobilized onto a biosensor chip at ˜3500 RU, and compound 2 was injected at 0-250 μM in buffer with 1% DMSO. The binding affinity KD was determined from the plot of steady-state response (Req) against compound 2 concentrations and fitting to a 1:1 binding model (FIG. 10).

mD4-VV hybrid virus [4] = assay: mD4-VV infection of 3-D human skin organ culture (viral titer and histology); format: cell-based; settings: for viral titer of mD4-VV in 3-D human skin organ culture: 3 days post infection, compared to DMSO drug vehicle
[5] = test system: 2-D keratinocyte cultures; assay: Toxicity on 2-D keratinocyte cultures; format: cell-based; settings: at the concentrations used in the 3-D culture experiment
[6] = Half-life stability in mouse liver microsomes; format: in vitro ADME; settings: for half-life: mouse, liver microsomes
mD4 [7] = molecular target: T1, mD4; assay: Thermal shift (differential scanning fluorimetry) assay with purified 6His-mD4; format: binding; settings: difference to DMSO mock treatment
Description: Thermal shift assay. Thermal shift (differential scanning fluorimetry) assay was performed as previously described. Briefly, 5 μM purified 6His-mD4 was mixed with compounds in thin-wall PCR 96-plate wells at 20 μL total volume containing 25 mM phosphate buffer (pH 6.8), 0.2 M NaCl, 2.5% glycerol, 2% DMSO, 0.005% (w/v) Triton-X100, and 1× Sypro Orange. Fluorescence intensities were monitored using the Applied Biosystems 7500 Fast Real-Time PCR system (Carlsbad, Calif.) at 582 nm from 25-80 ° C. at a rate of 1° C./min To generate melting temperature (Tm), protein melting curves were plotted on GraphPad Prism and fitted to the Boltzmann sigmoidal model. Thermal shift (ΔTm) is the difference between the 2% DMSO mock-treatment and inhibitor treatment. All experiments were duplicated and repeated independently.

vD4-VV rescue virus = assay: microbe, parasite or virus in culture; format: cell-based; settings: Orthopoxvirus vaccinia, BSC-1, 16 h, read-out: EC50, plaque reduction of vD4-VV rescue virus
mD4-VV hybrid virus [8] = format: cell-based, vaccinia hybrid virus containing mD4 of MCV
BSC-1 cells = settings: as previously determined; read-out: cytotoxicity CC50 on BSC-1 cells; cited from earlier work
[9] = BSC-1, 16 h, read-out: EC50, plaque reduction of mD4-VV hybrid virus

Sequence of mD4-dependent processive DNA synthesis (6His-mD4, vA20 and vE9) (Q98260 1-226): as above

With `O=c1[nH]c2ccc(NCc3ccccc3OCc3ccccc3)cc2[nH]1` [Compound 2, 5-[(2-benzyloxyphenyl)methylamino]-1,3-dihydrobenzimidazol-2-one] the “blocking processive DNA synthesis in vitro” value [1] was “specific blocking processive DNA synthesis in vitro”, the EC50 (mD4-VV hybrid virus [2]; [9]) was 3 µM and the EC50 (mD4-VV hybrid virus [2]; BSC-1, read-out: EC50 (mD4-VV)) was 10 µM. The Kd (mD4 [3]) was 32.8 µM, the “viral titer of mD4-VV in 3-D human skin organ culture” value (mD4-VV hybrid virus [4]) was “blocks mD4-VV viral infection” and the “viral titer of mD4-VV in 3-D human skin organ culture” value (mD4-VV hybrid virus [4]; listed as compound 2) was “significant decline in the viral titer”. For the same compound, the “histological analysis of 3-D human skin organ culture infected with mD4-VV” value (mD4-VV hybrid virus [4]; H&E stained cross-section, 3 days after infection) was “abundant population of stained keratinocytes was observed; also recorded: protection of the 3-D human skin organ culture”, the “toxicity on 2-D keratinocyte cultures” value [5] was “not toxic” and the “increase of half-life in mouse liver microsomes above compound 10” value ([6]; compound 2 versus compound 10) was “greater than 5 fold”. It also gave a half-life [6] of 36 min.

In the case of `Oc1ccc(NCc2cc(Br)ccc2OCc2ccc(F)cc2)cc1` [Compound 1, 4-[[5-bromo-2-[(4-fluorophenyl)methoxy]phenyl]methylamino]phenol], the EC50 (mD4-VV hybrid virus [2]; BSC-1, read-out: EC50 (mD4-VV)) is reported as 19.9 µM.

In the case of `Oc1ccc(NCc2ccccc2OCc2ccccc2)cc1` [Compound 10, 4-[(2-benzyloxyphenyl)methylamino]phenol], the “Thermal shift (ΔTm) of 6His-mD4” value (mD4 [7]; 10 μM compound) is reported as 2.2 °C, the “Thermal shift (ΔTm) of 6His-mD4” value (mD4 [7]; 40 μM compound) is reported as 3.3 °C and the IC50 [1] is reported as 28 µM. For the same compound, the EC50 (mD4-VV hybrid virus [2]; [9]) was 14 µM, the EC50 (mD4-VV hybrid virus [2]; BSC-1, read-out: EC50 (mD4-VV)) was 35.6 µM and the EC50 (vD4-VV rescue virus) was 11 µM. The “mD4-VV genomic DNA accumulation” value (mD4-VV hybrid virus [8]) was “completely prevented”, the half-life [6] was 6.7 min and the CC50 (BSC-1 cells) was 175 µM.

`O=[N+]([O-])c1cccc(COc2ccccc2CNc2ccccc2O)c1` [Compound 11, 2-[[2-[(3-nitrophenyl)methoxy]phenyl]methylamino]phenol] showed an EC50 (mD4-VV hybrid virus [2]; BSC-1, read-out: EC50 (mD4-VV)) of 17.7 µM.

In the case of `Nc1nc2c(ncn2COCCO)c(=O)[nH]1` [acyclovir, reference compound], the “inhibitory effect in plaque reduction assay” value (mD4-VV hybrid virus [2]) is reported as “no inhibitory effect”.

For `c1ccc(COc2ccccc2CNc2ccc(-c3cnco3)cc2)cc1` [Compound 13, N-[(2-benzyloxyphenyl)methyl]-4-oxazol-5-yl-aniline], the EC50 (mD4-VV hybrid virus [2]; BSC-1, read-out: EC50 (mD4-VV)) was 14.4 µM.

`Oc1ccc(NCc2ccccc2OCc2ccccc2)c(F)c1` [Compound 12, 4-[(2-benzyloxyphenyl)methylamino]-3-fluoro-phenol] gave an EC50 (mD4-VV hybrid virus [2]; BSC-1, read-out: EC50 (mD4-VV)) of 19.4 µM.

In the case of `NS(=O)(=O)c1ccc(NCc2cc(Cl)ccc2OCc2ccccc2)cc1` [Compound 3, 4-[(2-benzyloxy-5-chloro-phenyl)methylamino]benzenesulfonamide], the EC50 (mD4-VV hybrid virus [2]; BSC-1, read-out: EC50 (mD4-VV)) is reported as 13.9 µM.

With `O=c1[nH]c2ccc(NCc3ccccc3OCc3ccc(Cl)cc3)cc2[nH]1` [Compound 4, 5-[[2-[(4-chlorophenyl)methoxy]phenyl]methylamino]-1,3-dihydrobenzimidazol-2-one] the EC50 (mD4-VV hybrid virus [2]; BSC-1, read-out: EC50 (mD4-VV)) was 11 µM.

With `O=[N+]([O-])c1cccc(COc2ccccc2CNc2ccc(O)cc2)c1` [Compound 9, 4-[[2-[(3-nitrophenyl)methoxy]phenyl]methylamino]phenol] the EC50 (mD4-VV hybrid virus [2]; BSC-1, read-out: EC50 (mD4-VV)) was 13.3 µM.

With `O=c1[nH]c2ccc(NCc3cc(Cl)ccc3OCc3ccccc3F)cc2[nH]1` [Compound 8, 5-[[5-chloro-2-[(2-fluorophenyl)methoxy]phenyl]methylamino]-1,3-dihydrobenzimidazol-2-one] the EC50 (mD4-VV hybrid virus [2]; BSC-1, read-out: EC50 (mD4-VV)) was 11 µM.

`O=c1[nH]c2ccc(NCc3ccccc3OCc3ccc(F)cc3)cc2[nH]1` [Compound 6, 5-[[2-[(4-fluorophenyl)methoxy]phenyl]methylamino]-1,3-dihydrobenzimidazol-2-one] gave an EC50 (mD4-VV hybrid virus [2]; BSC-1, read-out: EC50 (mD4-VV)) of 13.9 µM.

Compound `O=c1[nH]c2ccc(NCc3cc(Br)ccc3OCc3ccccc3)cc2[nH]1` [Compound 7, 5-[(2-benzyloxy-5-bromo-phenyl)methylamino]-1,3-dihydrobenzimidazol-2-one] has an EC50 (mD4-VV hybrid virus [2]; BSC-1, read-out: EC50 (mD4-VV)) of 11 µM.

Compound `c1ccc(COc2ccccc2CNc2ccc3[nH]ncc3c2)cc1` [Compound 14, N-[(2-benzyloxyphenyl)methyl]-1H-indazol-5-amine] has an EC50 (mD4-VV hybrid virus [2]; BSC-1, read-out: EC50 (mD4-VV)) of 7.9 µM.
